Measurements as given in paper PMC4840262 (Mutagenesis, 2015).
Like-named read-outs stand apart in the source and are kept apart here. Marks after values point to notes of the source that are not given here.

Columns and labels:
[1] = type: in vivo; conditions: rat, plasma, po
human lymphocytes [2] = test system: human lymphocytes
human lymphocytes [3] = test system: human lymphocytes; remark: listed apart in the source
CHO-K1 cells [4] = conditions: Chinese hamster
[5] = test system: bone marrow polychromatic erythrocytes (PCE); conditions: female, rat, in vivo; for % Micronucleated PCE / % PCE: Han Wistar [Crl:WI(Han)], po
[6] = female, Han Wistar [Cr1 WI(Han)], rat, in vivo, po, 400 mg/kg
[7] = humans, 100mg once or twice a day for 3 days, original commercial oral GI formulation; cited from earlier work
[8] = Wistar rat, oral dose of 40mg/kg, microsuspension, after 4h; cited from earlier work
rats = conditions: formulated diet, doses equivalent to a maximum of 20mg/kg in rats; cited from earlier work
mice [9] = conditions: formulated diet, doses equivalent to a maximum of 30mg/kg in mice; cited from earlier work
CHL cells = conditions: cited from earlier work
[10] = test system: C3H/10T1/2 Cl 8 mouse embryo fibroblasts; conditions: cited from earlier work
in vitro = conditions: male, human, Cytotoxicity (%)
CHO-K1 cells [11] = conditions: cited from earlier work
mouse bone marrow = conditions: in vivo, po; cited from earlier work
mice [12] = conditions: mouse, in vivo; cited from earlier work
bacteria (Ames test) = conditions: cited from earlier work
Bacillus subtilis = conditions: cited from earlier work
Saccharomyces cerevisiae = conditions: cited from earlier work
Drosophila melanogaster = conditions: in vivo; cited from earlier work

Work on `COC(=O)Nc1nc2cc(C(=O)c3ccc(F)cc3)ccc2[nH]1` [Flubendazole, flubendazole] yielded an AUC(0-t) ([1]; 65 mg/kg) of 15100 ng·h/mL, a Cmax ([1]; 65 mg/kg) of 910 ng/mL and an AUC(0-t) ([1]; 130 mg/kg) of 16500 ng·h/mL. The Cmax ([1]; 130 mg/kg) was 900 ng/mL, the AUC(0-t) ([1]; 402 mg/kg) was 24900 ng·h/mL and the Cmax ([1]; 402 mg/kg) was 1330 ng/mL. For the same compound, the “Mean MNBN cell frequency (%)” value (human lymphocytes [2]; 0.050 µg/ml) was 0.10%, the “Mean MNBN cell frequency (%)” value (human lymphocytes [2]; 0.075 µg/ml) was 0.30% and the “Mean MNBN cell frequency (%)” value (human lymphocytes [2]; 0.100 µg/ml) was 0.55%. The “Mean MNBN cell frequency (%)” value (human lymphocytes [2]; 0.250 µg/ml) was 1.15* %, the “Mean MNBN cell frequency (%)” value (human lymphocytes [2]; 0.5 µg/ml) was 1.75* % and the “Mean MNBN cell frequency (%)” value (human lymphocytes [2]; 0.500 µg/ml) was 3.15* %. The “Mean MNBN cell frequency (%)” value (human lymphocytes [2]; 1.0 µg/ml) was 3.38* %, the “Mean MNBN cell frequency (%)” value (human lymphocytes [2]; 1.00 µg/ml) was 4.25* % and the “Mean MNBN cell frequency (%)” value (human lymphocytes [2]; 2.0 µg/ml) was 0.05%. For the same compound, the “Mean MNBN cell frequency (%)” value (human lymphocytes [2]; 3.0 µg/ml) was 5.15* %, the “Mean MNBN cell frequency (%)” value (human lymphocytes [2]; 6.0 µg/ml) was 0.85* % and the “Mean MNBN cell frequency (%)” value (human lymphocytes [2]; 6.5 µg/ml) was 10.10* %. For the same compound, the “Fold increases in MN over concurrent vehicle control” value (from here on “Fold increases in MN”) (human lymphocytes [2]; 7.5 μg/ml) was 7.2, the “Mean MNBN cell frequency (%)” value (human lymphocytes [2]; 7.5 μg/ml) was 1.65* % and the “Fold increases in MN” value (human lymphocytes [2]; 9.0 μg/ml) was 28.5. For the same compound, the “Mean MNBN cell frequency (%)” value (human lymphocytes [2]; 9.0 μg/ml) was 6.55* %, the “Mean MNBN cell frequency (%)” value (human lymphocytes [2]; 10.0 µg/ml) was 0.25% and the “Mean MNBN cell frequency (%)” value (human lymphocytes [2]; 12.0 µg/ml) was 0.20%. For the same compound, the “Mean MNBN cell frequency (%)” value (human lymphocytes [2]; 14.0 µg/ml) was 0.65* %, the “Fold increases in MN” value (human lymphocytes [2]; 16 μg/ml) was 3.6 and the “Mean MNBN cell frequency (%)” value (human lymphocytes [2]; 16.0 µg/ml) was 0.90* %. For the same compound, the “Mean MNBN cell frequency (%)” value (human lymphocytes [2]; 19.0 µg/ml) was 0.55* %, the “Fold increases in MN” value (human lymphocytes [2]; 25 μg/ml) was 11.5 and the “Mean MNBN cell frequency (%)” value (human lymphocytes [2]; 25.0 µg/ml) was 2.88* %. For the same compound, the “Lowest dose where a statistically significant increase in micronuclei was observed” value (human lymphocytes [2]; male, human) was 0.25 µg/mL, the “Lowest non-significant doses (micronuclei)” value (human lymphocytes [2]; male, human) was 0.1 µg per ml and the “Lowest tested concentration, statistically significant increases in micronuclei evident” value (human lymphocytes [2]; male, human) was 0.5 µg/mL. The “Mode of action of micronucleus induction (in words)” value (human lymphocytes [3]) was “acts as an aneugen”, the “% micronuclei with a centromere” value (human lymphocytes [3]; 7.5 μg/ml) was 80% and the “% micronuclei without a centromere” value (human lymphocytes [3]; 7.5 μg/ml) was 20%. The “% micronuclei with a centromere” value (human lymphocytes [3]; 9.0 μg/ml) was 88%, the “% micronuclei without a centromere” value (human lymphocytes [3]; 9.0 μg/ml) was 12% and the “% micronuclei with a centromere” value (human lymphocytes [3]; 16 μg/ml) was 83%. The “% micronuclei without a centromere” value (human lymphocytes [3]; 16 μg/ml) was 17%, the “% micronuclei with a centromere” value (human lymphocytes [3]; 25 μg/ml) was 86% and the “% micronuclei without a centromere” value (human lymphocytes [3]; 25 μg/ml) was 14%. For the same compound, the “%C− micronuclei” value (human lymphocytes [3]; male, human) was 30%, the BMD10 (CHO-K1 cells [4]) was 0.019 µg/mL and the BMDL10 (CHO-K1 cells [4]) was 0.013 µg/mL. For the same compound, the “Revised RfD” value ([5]; Han Wistar [Cr1 WI(Han)]) was 140.62 mg/subject/day, the “% Micronucleated PCE” value ([5]; 65 mg/kg) was 1.35* % and the “% PCE” value ([5]; 65 mg/kg) was 31.74%. For the same compound, the “% Micronucleated PCE” value ([5]; 130 mg/kg) was 2.31* %, the “% PCE” value ([5]; 130 mg/kg) was 33.00% and the “% Micronucleated PCE” value ([5]; 400 mg/kg) was 1.94* %. For the same compound, the Mean plasma concentration [6] was 610 ng/mL, the “Plasma Cmax” value [7] was under 1 ng/mL and the “Plasma levels of flubendazole” value [8] was 81 ng/mL. For the same compound, the “Carcinogenicity (in words)” value (rats) was “Neither showed evidence of carcinogenicity”, the “Carcinogenicity (in words)” value (mice [9]) was “Neither showed evidence of carcinogenicity” and the “Polyploidy (in words)” value (CHL cells) was “induce polyploidy”. For the same compound, the “Morphological transformation (in words)” value [10] was “morphological transformation”, the cytotoxicity (in vitro; 0.050 µg/ml) was 0% and the cytotoxicity (in vitro; 0.075 µg/ml) was 0%. For the same compound, the cytotoxicity (in vitro; 0.100 µg/ml) was 0%, the cytotoxicity (in vitro; 0.250 µg/ml) was 0% and the cytotoxicity (in vitro; 0.5 µg/ml) was 4%. It also gave a cytotoxicity (in vitro; 0.500 µg/ml) of 0%, a cytotoxicity (in vitro; 1.0 µg/ml) of 0% and a cytotoxicity (in vitro; 1.00 µg/ml) of 16%. For the same compound, the cytotoxicity (in vitro; 2.0 µg/ml) was 0%, the cytotoxicity (in vitro; 3.0 µg/ml) was 0% and the cytotoxicity (in vitro; 6.0 µg/ml) was 0%. The cytotoxicity (in vitro; 6.5 µg/ml) was 43%, the cytotoxicity (in vitro; 7.5 µg/ml) was 8% and the cytotoxicity (in vitro; 9.0 µg/ml) was 26%. The cytotoxicity (in vitro; 10.0 µg/ml) was 0%, the cytotoxicity (in vitro; 12.0 µg/ml) was 0% and the cytotoxicity (in vitro; 14.0 µg/ml) was 14%. It also gave a cytotoxicity (in vitro; 16.0 µg/ml) of 4%, a cytotoxicity (in vitro; 19.0 µg/ml) of 7% and a cytotoxicity (in vitro; 25.0 µg/ml) of 12%. The “Td (threshold dose)” value (CHO-K1 cells [11]) was 0.028 µg/mL, the “Td–L–CI (lower confidence Td)” value (CHO-K1 cells [11]) was 0.025 µg/mL and the “Bone marrow micronucleus test result (in words)” value (mouse bone marrow) was “negative”. For the same compound, the “Induction of dominant lethal mutations (in words)” value (mice [12]) was “negative”, the “Ames bacterial mutation test result (in words)” value (bacteria (Ames test)) was “negative” and the “Induction of DNA repair (in words)” value (Bacillus subtilis) was “negative”. For the same compound, the “Mutation test result (in words)” value (Saccharomyces cerevisiae) was “negative” and the “Mutation test result (in words)” value (Drosophila melanogaster) was “negative”.

For `COC(=O)Nc1nc2ccc(C(O)c3ccc(F)cc3)cc2[nH]1` (centres unmarked) [S-reduced flubendazole], the “Cytotoxicity (%)” value (human lymphocytes [2]) was 0.0%.

For `CCCOc1ccc2nc(NC(=O)OC)[nH]c2c1` [Oxibendazole, oxibendazole], the BMD10 (CHO-K1 cells [4]) is given as 0.015 µg/mL, the BMDL10 (CHO-K1 cells [4]) is given as 0.010 µg/mL and the “Td (threshold dose)” value (CHO-K1 cells [11]) is given as 0.032 µg/mL. The “Td–L–CI (lower confidence Td)” value (CHO-K1 cells [11]) was 0.032 µg/mL.

For `COC(=O)Nc1nc2ccccc2[nH]1` [Carbendazim, carbendazim], the BMD10 (CHO-K1 cells [4]) is listed as 0.310 µg/mL, the BMDL10 (CHO-K1 cells [4]) is listed as 0.235 µg/mL and the “Td (threshold dose)” value (CHO-K1 cells [11]) is listed as 0.346 µg/mL. For the same compound, the “Td–L–CI (lower confidence Td)” value (CHO-K1 cells [11]) was 0.268 µg/mL.

In the case of `O=P1(N(CCCl)CCCl)NCCCO1` (centres unmarked) [Cyclophosphamide, cyclophosphamide], the “Fold increases in MN” value (human lymphocytes [2]; male, human) was 5.6, the “Mean MNBN cell frequency (%)” value (human lymphocytes [2]; male, human) was 1.40* % and the “% micronuclei with a centromere” value (human lymphocytes [3]; male, human) was 16%. For the same compound, the “% micronuclei without a centromere” value (human lymphocytes [3]; male, human) was 84%.

In the case of `COC(=O)Nc1nc2ccc([C@H](O)c3ccc(F)cc3)cc2[nH]1` [R-reduced flubendazole], the “Cytotoxicity (%)” value (human lymphocytes [2]) was 3.0% and the “Lowest dose, significant increase in micronuclei seen” value (human lymphocytes [2]) was 1.1 µg per ml.
